Legend:
[1] = test system: c57B1/6N mice; test: Seizure threshold by pentylenetetrazole (PTZ) tail-vein infusion; type: in vivo; details: for seizure threshold: intraperitoneally, 30 min prior to test
Procedure: Seizure threshold was determined by pentylenetetrazole (PTZ) tail-vein infusion at a rate of 100 μl/min ([…] PTZ in saline, pH 7.4) on freely moving animals. 30 min prior to test c57B1/6N mice were intraperitoneally injected with either saline (=control group), VA or VA derivatives at the indicated concentrations. […] Animals were immediately anaesthetized using increasing carbon dioxide concentrations and killed by cervical displacement. The seizure threshold dose was calculated from the infused volume in relation to body weight. Results from tail-vein infusion were verified by intraperitoneal injection of a fixed dose of 30 mg PTZ/kg body weight. Animals were observed and video-tracked for 20 min after treatment.

[2] = biological target: T1, GABAA channels composed of α1β3 subunits (Rattus norvegicus, UniProt P62813+P63079); test: Modulation of IGABA, two-microelectrode voltage-clamp on recombinant GABAA receptors expressed in Xenopus laevis oocytes; type: cell-based; details: for EC50 / Hill-Coefficient (nH): GABA EC3-5; for Emax: GABA EC3-5, read-out: Maximum stimulation of IGABA (EC3-5)
T1 construct: expressed in transfected cells; host or cells: Xenopus laevis oocytes injected with cRNA transcribed from cDNA in pCMV vector
T1 sequence (P62813 28-455): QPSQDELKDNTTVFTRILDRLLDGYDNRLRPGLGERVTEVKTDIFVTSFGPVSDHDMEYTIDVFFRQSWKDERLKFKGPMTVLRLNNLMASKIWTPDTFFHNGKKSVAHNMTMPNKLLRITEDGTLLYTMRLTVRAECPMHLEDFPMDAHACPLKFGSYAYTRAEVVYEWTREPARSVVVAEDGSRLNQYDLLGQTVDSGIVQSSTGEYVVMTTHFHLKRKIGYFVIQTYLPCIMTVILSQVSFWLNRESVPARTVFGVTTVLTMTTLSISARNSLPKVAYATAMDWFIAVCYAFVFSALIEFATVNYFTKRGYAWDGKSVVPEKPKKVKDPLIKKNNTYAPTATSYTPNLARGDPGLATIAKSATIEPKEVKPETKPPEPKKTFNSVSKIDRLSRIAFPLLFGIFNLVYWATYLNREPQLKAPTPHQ
T1 sequence (P63079 26-473): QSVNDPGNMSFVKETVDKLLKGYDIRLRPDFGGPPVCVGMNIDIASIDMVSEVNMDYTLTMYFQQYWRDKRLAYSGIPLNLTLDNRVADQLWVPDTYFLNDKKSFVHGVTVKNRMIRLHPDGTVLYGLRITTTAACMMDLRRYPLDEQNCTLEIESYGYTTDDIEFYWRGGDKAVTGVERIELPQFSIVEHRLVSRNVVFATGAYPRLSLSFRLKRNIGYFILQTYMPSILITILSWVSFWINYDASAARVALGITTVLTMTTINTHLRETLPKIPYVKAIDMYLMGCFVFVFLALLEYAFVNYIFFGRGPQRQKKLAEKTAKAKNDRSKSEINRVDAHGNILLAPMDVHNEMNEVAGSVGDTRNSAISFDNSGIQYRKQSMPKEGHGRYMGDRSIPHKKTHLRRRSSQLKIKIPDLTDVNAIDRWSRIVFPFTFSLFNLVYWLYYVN
Procedure: Preparation of stage V-VI oocytes from Xenopus laevis and synthesis of capped off run-off poly(A^+) cRNA transcripts from linearized cDNA templates (pCMV vector) were performed as described (Khom et al. 2006). Briefly, female Xenopus laevis (NASCO, USA) were anaesthetised by exposing them for 15 minutes to a 0.2% solution of MS-222 (methane sulfonate salt of 3-aminobenzoic acid ethyl ester; Sandoz) before surgically removing parts of the ovaries. Follicle membranes from isolated oocytes were enzymatically digested with 2 mg/ml collagenase (Type 1A, Sigma). One day after isolation, the oocytes were injected with about 10-50 nl of DEPC-treated water (diethyl pyrocarbonate, Sigma, Germany) containing the different cRNAs at a concentration of approximately 300-3000 pg/nl/subunit. The amount of cRNA was determined by means of a Nanoprop ND-1000 (Kisker-biotech, Steinfurt, Germany).
cRNAs were mixed in a ratio of 1:1 for the expression of α1β3 receptors. Oocytes were stored at 18° C. in ND96 solution (Methfessel et al., 1986). Electrophysiological experiments were done using the two-microelectrode voltage-clamp method at a holding potential of −70 mV making use of a TURBO TEC 01C amplifier (npi electronic, Tamm, Germany) and an Axon Digidata 1322A interface (Molecular Devices, Sunnyvale, Calif.). Data acquisition was carried out using pCLAMP v.9.2. The bath solution contained 90 mM NaCl, 1 mM KCl, 1 mM MgCl2.6H2O, 1 mM CaCl2 and 5 mM HEPES (pH 7.4). Microelectrodes were filled with 2M KCl and had resistances between 1 and 3 MΩ (Khom et al., 2007).
GABA and valerenic acid derivatives, respectively, were applied by means of fast perfusion system (see Baburin et al. 2006 for details; Khom et al. 2006). Drug or control solutions were applied by means of a TECAN Miniprep 60 permitting automation of the experiments. To elicit IGABA the chamber was perfused with 120 μl of GABA-containing solution at a rate of between 300 and 1000 μl/s. The IGABA rise time was in the range of between 100 and 250 ms (see Khom et al. 2006). Care was taken to account for possible slow recovery from increasing levels of desensitization in the presence of high GABA, valerenic acid and derivatives concentrations. Oocytes with maximal current amplitudes >3 μA were discarded to exclude voltage-clamp errors (Khom et al., 2006; Baburin et al., 2006; Khom et al., 2007).
Stimulation of chloride currents by modulators of the GABAA receptor was measured at a GABA concentration eliciting between 3% and 5% of the maximal current amplitude (EC3-5). The EC3-5 was determined at the beginning of each experiment. Enhancement of the chloride current was defined as (I(GABA+Comp)/IGABA)−1, where I(GABA+Comp) is the current response in the presence of a given compound (valerenic acid or derivative) and IGABA is the control GABA current. To measure the sensitivity of the GABAA receptor for a given compound, the compound was applied for an equilibration period of 1 minute before applying GABA (EC3-5). Concentration-response curves were generated and the data were fitted by non-linear regression analysis using Origin software (OriginLab Corporation, USA). Data were fitted to the equation:
[formula] where nH is the Hill coefficient. Each data point represents the mean±S.E. from at least 4 oocytes and 2 oocyte batches. Statistical significance was calculated using the paired Student t-test with a confidence interval of p<0.05 (Khom et al., 2007). 4.2.2. Modulation of IGABA by VA Derivatives
Furthermore, the modulation of IGABA by VA derivatives was investigated at a GABA EC3-5 concentration in a system as outlined under 4.2.1, i.e. on recombinant GABAA receptors expressed in Xenopus laevis oocytes. Thus, modulation of IGABA by VA derivatives was studied on GABAA channels composed of α1β3 subunits.

[3] = test system: mice (C57B1/6N); test: Mouse Elevated Plus Maze (EPM) test; type: in vivo; details: 3 mg/kg BW, injected 30 min prior to testing, assessed over 5 minutes
Procedure: Male mice (C57B1/6N) were obtained from Charles River Laboratories (Germany). For breeding and maintenance mice were housed in groups with free access to food and water.
Temperature was fixed to 23±1C and 60% humidity with a 12 h light-dark cycle (lights on 0700-1900 hours). Age and testing experience matched male mice at 3-8 months for all experiments. All procedures involving animals were approved by the Austrian Animal Experimentation Ethics Board in compliance with the European convention for the protection of vertebrate animals used for experimental and other scientific purposes ETS no.: 123.
Mice were transferred to the testing facility 24 h before commencement of experiments. Tests were performed between 0900 and 1300 hours. All tests were video monitored and evaluated by an experimenter blinded to the administered compound. […]
Behaviour was tested over 5 minutes on an elevated plus maze (1 meter above ground) consisting of two closed and two open arms, each 50 cm×5 cm in size. […] Analysis of open and closed arm entries and time on open arm was automatically recorded using Video-Mot 2 equipment and software (Wittmann et al., 2008). […]

Compound | EC50 [2] [µM] | Hill-Coefficient (nH) [2] | Emax [2] [%] | anticonvulsant effects (in words) ([1]; 30 mg/kg bodyweight) | further results
CC1=C2[C@H](/C=C(\C)C(=O)O)CC[C@@H](C)[C@H]2CC1 [VA, (E)-3-[(4S,7R,7aR)-3,7-dimethyl-2,4,5,6,7,7a-hexahydro-1H-inden-4-yl]-2-methylprop-2-enoic acid, reference compound] | – | – | – | – | seizure threshold ([1]; 3 mg/kg bodyweight): 47.7±2.7 mg PTZ/kg; seizure threshold (in words) ([1]; concentrations ≧3 mg/kg bodyweight, vs. saline): significantly increased
CC1=C2[C@H](/C=C(\C)C(N)=O)CC[C@@H](C)[C@H]2CC1 [VA-A, (E)-3-((4S,7R,7aR)-3,7-dimethyl-2,4,5,6,7,7a-hexahydro-1H-inden-4-yl)-2-methylacrylamide] | 13.7 ± 2.3 | 1.6 ± 0.2 | – | – | anticonvulsant effect compared among tested substances ([1]; 3 mg/kg bodyweight): most pronounced; seizure threshold ([1]; 3 mg/kg bodyweight): 58.6±3.7 mg PTZ/kg; time spent in the open arms of the EPM, % of total time in the test [3]: 52.1±3.9%
CCCCNC(=O)/C(C)=C/[C@@H]1CC[C@@H](C)[C@H]2CCC(C)=C12 [VA-BA, (E)-N-butyl-3-((4S,7R,7aR)-3,7-dimethyl-2,4,5,6,7,7a-hexahydro-1H-inden-4-yl)-2-methylacrylamide] | 18.8 ± 6.9 | 1.1 ± 0.2 | 569 ± 57 | – | –
CCN(CC)C(=O)/C(C)=C/[C@@H]1CC[C@@H](C)[C@H]2CCC(C)=C12 [VA-DEA, (E)-3-((4S,7R,7aR)-3,7-dimethyl-2,4,5,6,7,7a-hexahydro-1H-inden-4-yl)-N,N-diethyl-2-methylacrylamide] | 23.7 ± 6.3 | 1.4 ± 0.1 | 901 ± 120 | significantly increased | –
CC1=C2[C@H](/C=C(\C)C(=O)N(C)C)CC[C@@H](C)[C@H]2CC1 [VA-DMA, (E)-3-((4S,7R,7aR)-3,7-dimethyl-2,4,5,6,7,7a-hexahydro-1H-inden-4-yl)-N,N,2-trimethylacrylamide] | 28.4 ± 7.1 | 2.1 ± 0.5 | – | – | –
CCNC(=O)/C(C)=C/[C@@H]1CC[C@@H](C)[C@H]2CCC(C)=C12 [VA-EA] | 23.4 ± 6.9 | 1.3 ± 0.3 | – | significantly increased | –
CC1=C2[C@H](/C=C(\C)C(=O)NC(C)C)CC[C@@H](C)[C@H]2CC1 [VA-IPA, (E)-3-((4S,7R,7aR)-3,7-dimethyl-2,4,5,6,7,7a-hexahydro-1H-inden-4-yl)-N-isopropyl-2-methylacrylamide] | 22.5 ± 6 | 1.5 ± 0.3 | 506 ± 76 | – | –
CNC(=O)/C(C)=C/[C@@H]1CC[C@@H](C)[C@H]2CCC(C)=C12 [VA-MA, (E)-3-((4S,7R,7aR)-3,7-dimethyl-2,4,5,6,7,7a-hexahydro-1H-inden-4-yl)-N,2-dimethylacrylamide] | 26.3 ± 6.6 | 1.4 ± 0.1 | – | significantly increased | anticonvulsant effect compared among tested substances ([1]; 30 mg/kg bodyweight): strongest anticonvulsant effect
CC1=C2[C@H](/C=C(\C)C(=O)N3CCOCC3)CC[C@@H](C)[C@H]2CC1 [VA-MO, (E)-3-((4S,7R,7aR)-3,7-dimethyl-2,4,5,6,7,7a-hexahydro-1H-inden-4-yl)-2-methyl-1-morpholinoprop-2-en-1-one] | 64.2 ± 13.8 | 1.6 ± 0.2 | – | – | –
CC1=C2[C@H](/C=C(\C)C(=O)N3CCCCC3)CC[C@@H](C)[C@H]2CC1 [VA-PIP, (E)-3-((4S,7R,7aR)-3,7-dimethyl-2,4,5,6,7,7a-hexahydro-1H-inden-4-yl)-2-methyl-1-(piperidin-1-yl)prop-2-en-1-one] | 54.6 ± 17 | 1.6 ± 0.3 | – | – | –

From patent US8809395B2, “Methods for making valerenic acid derivatives and their use” (Valericon GmbH, priority 2009, dated 2014)
